Laboratory results as given in US5378706A, “Fused-thiazole derivatives active on the cholinergic system, and pharmaceutical compositions containing same” (Sanofi, priority 1987, dated 1995).

Legend:
[1] = Acute toxicity, 24 hours mortality after i.p. administration to mice; conditions: mouse, in vivo, ip, female mice, 20 g
Experimental: Finally, the acute toxicity was determined for various products according to the invention. The products were administered intraperitoneally in increasing doses to groups of 10 female mice (Swiss, CD 1, Charles River, France) with a body weight of 20 g.

[2] = tested on: M1 central muscarinic cholinergic receptors; experiment: Antagonism of rotations induced by intrastriatal injection of pirenzepine in mice; assay type: in vivo, mice (Swiss, CD 1); conditions: for Pirenzepine antagonism ED50 i.p.: 15 minutes before intrastriatal pirenzepine 1 μg; for Pirenzepine antagonism ED50 p.o.: 30 minutes before intrastriatal pirenzepine 1 μg
Experimental: Pirenzepine (PZ) is a specific antagonist of the M1 central muscarinic cholinergic receptors. The intrastriatal injection of PZ into mice induces rotatory behavoir. The antagonism of this behavoir by the products according to the invention was studied.
The products according to the invention are administered either intraperitoneally (i.p.) or orally (p.o.) after solubilization in distilled water or suspension in a 5% solution of gum arabic. The control animals receive the pure solvent under the same conditions.
The animals used are female mice (Swiss, CD 1, Charles River, France) with a body weight of between 25 and 30 grams.
The pirenzepine is dissolved in a phosphate buffer and the pH of the solution is 6.
The test products or their solvents are administered in a volume of 0.4 ml per 20 g of body weight, either by i.p. injection or orally via an esophageal tube.
The number of contralateral rotations (rotations in the opposite direction to the side injected) was counted for three 2-minute periods after injection of the pirenzepine: 2nd to 4th, 8th to 10th and 13th to 15th minutes. Each treatment consists of 3 to 4 doses and 10 animals per dose. The total number of rotations and the percentage antagonism with respect to the control group are calculated for each treatment.

[3] = target: T1, M1 -type muscarinic cholinergic receptor (Rattus norvegicus, UniProt P08482); experiment: biochemical; assay type: binding; conditions: for IC50: rat hippocampus homogenate, 3H-PZ 1 nM, 2 hours at 4° C., pH 7.40, read-out: IC50 3H-PZ (M1); for ratio R of the IC50 values for the M1 and M2 receptors: selectivity, values correspond to IC50 M2 / IC50 M1
T1 sequence (P08482 1-460): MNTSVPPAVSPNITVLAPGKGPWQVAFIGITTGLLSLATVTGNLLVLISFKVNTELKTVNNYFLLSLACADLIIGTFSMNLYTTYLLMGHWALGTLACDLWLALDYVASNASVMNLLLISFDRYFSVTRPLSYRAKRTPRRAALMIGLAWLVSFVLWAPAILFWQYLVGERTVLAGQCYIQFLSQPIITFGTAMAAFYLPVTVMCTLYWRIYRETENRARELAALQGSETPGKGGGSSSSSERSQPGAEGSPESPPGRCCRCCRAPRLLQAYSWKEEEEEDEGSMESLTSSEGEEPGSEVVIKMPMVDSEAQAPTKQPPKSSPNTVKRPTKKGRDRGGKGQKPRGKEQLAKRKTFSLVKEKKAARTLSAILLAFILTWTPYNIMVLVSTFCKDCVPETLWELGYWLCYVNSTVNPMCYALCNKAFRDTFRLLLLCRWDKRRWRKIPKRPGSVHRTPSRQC

[4] = target: T2, M2 -type muscarinic cholinergic receptor (Cavia porcellus, UniProt H0VRN8); experiment: Affinity for the M2-type muscarinic cholinergic receptor, displacement of tritiated N-methylscopolamine (3H-NMS) on smooth guinea-pig ileum muscle homogenate; assay type: binding; conditions: guinea-pig ileum smooth muscle homogenate, 3H-NMS 0.3 nM, 20 minutes at 30° C., pH 7.5; read-out: IC50 3H-NMS (M2)
T2 construct: on a smooth guinea-pig ileum muscle homogenate; from tissue; host or cells: guinea-pig ileum smooth muscle homogenate
T2 sequence (H0VRN8 1-466): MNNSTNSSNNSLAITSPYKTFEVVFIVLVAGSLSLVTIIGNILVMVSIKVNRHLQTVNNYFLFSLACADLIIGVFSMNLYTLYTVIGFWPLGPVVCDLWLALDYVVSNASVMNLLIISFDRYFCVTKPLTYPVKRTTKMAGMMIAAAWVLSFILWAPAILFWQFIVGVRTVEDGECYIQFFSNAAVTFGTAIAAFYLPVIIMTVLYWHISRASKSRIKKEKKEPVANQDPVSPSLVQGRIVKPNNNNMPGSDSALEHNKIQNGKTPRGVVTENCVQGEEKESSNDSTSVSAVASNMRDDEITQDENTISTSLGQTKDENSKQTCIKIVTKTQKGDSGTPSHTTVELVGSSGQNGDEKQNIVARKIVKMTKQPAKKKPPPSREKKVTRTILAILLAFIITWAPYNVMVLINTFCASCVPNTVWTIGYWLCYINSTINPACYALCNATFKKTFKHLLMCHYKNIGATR
Experimental: The M1 -type receptors are concentrated in certain regions of the brain, such as the hippocampus, the cerebral cortex and the striatum, and also in the sympathetic ganglia. These binding sites can be selectively labeled with tritiated pirenzepine (^3 H-PZ). The M2 -type receptors predominate in the heart and the ileum and can be labeled with tritiated N-methyl-scopolamine (^3 H-NMS). The selectivity of the products of the invention with respect to the M1 and M2 sites was determined by studying their in vitro interaction with ^3 H-PZ and ^3 H-NMS firmly bound with a high affinity to rat hippocampus membranes and smooth guinea-pig ileum muscle, respectively.
The interaction with the M2 -type muscarinic receptors was studied by in vitro measurement, on a smooth guinea-pig ileum muscle homogenate, of the displacement of tritiated N-methylscopolamine from its specific binding sites. […] The final volume is 1 ml. The reaction is stopped by centrifugation for 5 minutes at 15,000×g. The non-specific binding is determined in the presence of 10 mM atropine sulfate.
The IC50 for ^3 H-PZ displacement represents the affinity for the M1 receptor; the IC50 for ^3 H-NMS displacement represents the affinity for the M2 receptor.

Structure (SMILES): c1ccc(-c2csc(NCCN3CCOCC3)n2)cc1 [SR 44244 A]
- LD50 at 24 h [1]: 250 mg/kg
- Pirenzepine antagonism ED50 i.p. [2]: 8 mg/kg
- Pirenzepine antagonism ED50 p.o. [2]: 20 mg/kg

Structure (SMILES): c1ccc(-c2csc(NCCCN3CCOCC3)n2)cc1 [SR 44284 A]
- IC50 [3]: 8 µM
- ratio R of the IC50 values for the M1 and M2 receptors [3]: 5
- LD50 at 24 h [1]: 450 mg/kg
- IC50 [4]: 40 µM
- Pirenzepine antagonism ED50 i.p. [2]: 8 mg/kg

Structure (SMILES): CCN(CC)CCNc1nc(-c2ccccc2)cs1 [SR 44286 A]
- IC50 [3]: 6 µM
- ratio R of the IC50 values for the M1 and M2 receptors [3]: 16
- LD50 at 24 h [1]: 200 mg/kg
- IC50 [4]: 100 µM
- Pirenzepine antagonism ED50 i.p. [2]: 3 mg/kg
- Pirenzepine antagonism ED50 p.o. [2]: 10 mg/kg

Structure (SMILES): CN(C)CCCNc1nc(-c2ccccc2)cs1 [SR 44345 A]
- IC50 [3]: 1 µM
- ratio R of the IC50 values for the M1 and M2 receptors [3]: 70
- LD50 at 24 h [1]: 200 mg/kg
- IC50 [4]: 70 µM
- Pirenzepine antagonism ED50 i.p. [2]: 0.5 mg/kg
- Pirenzepine antagonism ED50 p.o. [2]: 1 mg/kg

Structure (SMILES): CCN(CC)CCCNc1nc(-c2c(C)cc(C)cc2C)cs1 [SR 44347 A]
- IC50 [3]: 0.35 µM
- ratio R of the IC50 values for the M1 and M2 receptors [3]: 37
- LD50 at 24 h [1]: 60 mg/kg
- IC50 [4]: 13 µM
- Pirenzepine antagonism ED50 i.p. [2]: 0.03 mg/kg
- Pirenzepine antagonism ED50 p.o. [2]: 0.20 mg/kg

Structure (SMILES): CCN(CC)CCNc1nc(-c2c(C)cc(C)cc2C)cs1 [SR 44372 A]
- IC50 [3]: 0.12 µM
- ratio R of the IC50 values for the M1 and M2 receptors [3]: 41
- LD50 at 24 h [1]: 75 mg/kg
- IC50 [4]: 5 µM
- Pirenzepine antagonism ED50 i.p. [2]: 1 mg/kg
- Pirenzepine antagonism ED50 p.o. [2]: 3 mg/kg

Structure (SMILES): CCN(CC)CCCNc1nc(C)c(-c2ccccc2)s1 [SR 44373 A]
- IC50 [3]: 0.7 µM
- ratio R of the IC50 values for the M1 and M2 receptors [3]: 21
- LD50 at 24 h [1]: 75 mg/kg
- IC50 [4]: 15 µM
- Pirenzepine antagonism ED50 i.p. [2]: 0.3 mg/kg
- Pirenzepine antagonism ED50 p.o. [2]: 1 mg/kg

Structure (SMILES): CCN(CC)CCCNc1nc(-c2ccccc2)cs1 [SR 44374 A]
- IC50 [3]: 0.4 µM
- ratio R of the IC50 values for the M1 and M2 receptors [3]: 20
- LD50 at 24 h [1]: 150 mg/kg
- IC50 [4]: 8 µM
- Pirenzepine antagonism ED50 i.p. [2]: 3 mg/kg
